In patent publication US8507499B2, “Substituted indole/indazole-pyrimidinyl compounds” (Confluence Life Sciences, Inc., priority 2010, dated 2013) one finds IC50 data, which are given here for one compound.

pIC50: −log10 of the molar value. Several values for one entry are separate records, joined by “and”; a condition that tells them apart may be missing. Equal entries are not always repeated.

In this experiment the target is p38/MK2 (Homo sapiens, UniProt Q16539). Nature of the experiment: p38α/MK2 cascade assay (phosphorylation of Hsp27 peptide, Caliper LabChip 3000). Format: biochemical. To be noted: Hsp27 peptide 1 μM, MgATP 10 μM, two values printed in one cell. Here is the method:
The novel, MK2 substrate-selective inhibitory mechanism of compounds is evaluated in enzyme assays comparing inhibitor potency in blocking p38/MK2 versus p38/PRAK induced phosphorylation of an HSP-27 derived peptide substrate. The ability of compounds to inhibit activated phospho-p38α is evaluated using a p38α/MK2 and a p38α/PRAK cascade assay format. The kinase activity of p38α is determined by its ability to phosphorylate GST-MK2 or GST-PRAK. Activation of MK2 or PRAK by p38α is quantitated by measuring the phosphorylation of a fluorescently-labeled, MK2 specific peptide substrate, Hsp27 peptide (FITC-KKKALSRQLSVAA). The phosphorylation of the Hsp27 peptide is quantified using the Caliper LabChip 3000. Kinase reactions are carried out in a 384-well plate (Matrical, MP101-1-PP) in 20 mM HEPES pH 7.5, 10 mM MgCl2, 0.0005% Tween-20, 0.01% BSA, 1 mM DTT, and 2% DMSO. […] The p38α compound inhibitory potency is quantitated from dose-response IC50 values or Ki values from p38α/MK2 cascade assays while the substrate selectivity is calculated as a ratio of p38α/PRAK:p38α/MK2 IC50 values. Species compounds of Formula I, described hereinabove, evaluated in this assay, are expected to provide a therapeutic benefit in the treatment of p38 kinase mediated diseases, such as autoimmune diseases and lymphoma.

Sequence of p38/MK2 (Q16539 whole entry): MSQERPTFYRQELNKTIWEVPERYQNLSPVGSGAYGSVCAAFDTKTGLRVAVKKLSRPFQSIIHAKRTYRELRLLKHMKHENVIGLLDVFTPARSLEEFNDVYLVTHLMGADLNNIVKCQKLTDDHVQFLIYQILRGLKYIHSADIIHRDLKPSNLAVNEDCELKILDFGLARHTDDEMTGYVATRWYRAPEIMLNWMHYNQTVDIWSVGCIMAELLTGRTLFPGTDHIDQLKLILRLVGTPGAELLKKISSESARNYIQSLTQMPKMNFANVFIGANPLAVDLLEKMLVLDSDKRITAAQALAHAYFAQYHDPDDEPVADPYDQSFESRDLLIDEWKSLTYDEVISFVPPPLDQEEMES

Consider `CC(C)(C)c1nccc(-c2c[nH]c3cc(Cl)c(C(=O)N4CCC(Cc5ccc(F)cc5)CC4)cc23)n1` [Example 57, (3-(2-tert-Butyl-pyrimidin-4-yl)-6-chloro-1H-indol-5-yl)-(4-(4-fluorobenzyl)-piperidin-1-yl)-methanone], for which the pIC50 (in general, the negative decadic logarithm of the IC50, by convention in mol/L) is 5.54 and 5.41.
